Patent US20150087627A1, “COMBINATION OF KINASE INHIBITORS AND USES THEREOF” (Intellikine LLC, priority 2011, published 2015)
Like-named read-outs stand apart in the source and are kept apart here.

Key:
Assay type in all cases: biochemical
[1] = biological target: T1, PI3K δ (Homo sapiens, UniProt O00329); experiment: PI 3-Kinase (human) HTRF assay, PI3K δ
T1 construct: purchased Upstate / Millipore Corporation

[2] = biological target: T2, PI3K α (p110α/p85α) (Homo sapiens, UniProt P42336); experiment: PI 3-Kinase (human) HTRF assay, PI3K α; details: read-out: PI3K α IC50
T2 construct: purchased Upstate / Millipore Corporation
T2 sequence (P42336 whole entry): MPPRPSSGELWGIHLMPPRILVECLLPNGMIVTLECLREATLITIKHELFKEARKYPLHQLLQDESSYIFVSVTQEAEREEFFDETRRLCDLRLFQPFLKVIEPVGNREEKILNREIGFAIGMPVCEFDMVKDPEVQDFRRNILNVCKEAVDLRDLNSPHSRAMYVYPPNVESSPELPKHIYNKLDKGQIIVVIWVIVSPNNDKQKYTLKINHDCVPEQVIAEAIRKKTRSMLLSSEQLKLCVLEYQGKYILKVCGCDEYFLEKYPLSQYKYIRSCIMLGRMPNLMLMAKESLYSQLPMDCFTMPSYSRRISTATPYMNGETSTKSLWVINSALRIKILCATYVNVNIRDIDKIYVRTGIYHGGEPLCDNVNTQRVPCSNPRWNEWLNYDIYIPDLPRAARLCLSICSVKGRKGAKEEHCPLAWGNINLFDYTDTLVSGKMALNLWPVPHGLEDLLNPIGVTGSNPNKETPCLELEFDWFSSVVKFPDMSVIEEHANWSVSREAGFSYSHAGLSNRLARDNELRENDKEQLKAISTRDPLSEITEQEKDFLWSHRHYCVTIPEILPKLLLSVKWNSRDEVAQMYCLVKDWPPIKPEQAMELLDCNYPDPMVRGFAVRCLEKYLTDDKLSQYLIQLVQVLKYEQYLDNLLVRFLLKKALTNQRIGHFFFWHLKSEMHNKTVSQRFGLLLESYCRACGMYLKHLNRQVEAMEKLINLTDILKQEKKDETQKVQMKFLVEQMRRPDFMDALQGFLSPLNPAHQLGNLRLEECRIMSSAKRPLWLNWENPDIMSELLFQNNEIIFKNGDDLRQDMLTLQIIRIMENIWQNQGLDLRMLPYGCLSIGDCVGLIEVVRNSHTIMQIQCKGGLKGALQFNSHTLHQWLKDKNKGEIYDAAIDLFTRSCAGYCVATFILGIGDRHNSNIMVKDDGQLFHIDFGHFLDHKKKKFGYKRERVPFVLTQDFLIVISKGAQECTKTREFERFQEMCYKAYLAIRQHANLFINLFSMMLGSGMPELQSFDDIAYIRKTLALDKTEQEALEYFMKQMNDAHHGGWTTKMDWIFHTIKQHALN
T2 sequence (P27986 whole entry partner): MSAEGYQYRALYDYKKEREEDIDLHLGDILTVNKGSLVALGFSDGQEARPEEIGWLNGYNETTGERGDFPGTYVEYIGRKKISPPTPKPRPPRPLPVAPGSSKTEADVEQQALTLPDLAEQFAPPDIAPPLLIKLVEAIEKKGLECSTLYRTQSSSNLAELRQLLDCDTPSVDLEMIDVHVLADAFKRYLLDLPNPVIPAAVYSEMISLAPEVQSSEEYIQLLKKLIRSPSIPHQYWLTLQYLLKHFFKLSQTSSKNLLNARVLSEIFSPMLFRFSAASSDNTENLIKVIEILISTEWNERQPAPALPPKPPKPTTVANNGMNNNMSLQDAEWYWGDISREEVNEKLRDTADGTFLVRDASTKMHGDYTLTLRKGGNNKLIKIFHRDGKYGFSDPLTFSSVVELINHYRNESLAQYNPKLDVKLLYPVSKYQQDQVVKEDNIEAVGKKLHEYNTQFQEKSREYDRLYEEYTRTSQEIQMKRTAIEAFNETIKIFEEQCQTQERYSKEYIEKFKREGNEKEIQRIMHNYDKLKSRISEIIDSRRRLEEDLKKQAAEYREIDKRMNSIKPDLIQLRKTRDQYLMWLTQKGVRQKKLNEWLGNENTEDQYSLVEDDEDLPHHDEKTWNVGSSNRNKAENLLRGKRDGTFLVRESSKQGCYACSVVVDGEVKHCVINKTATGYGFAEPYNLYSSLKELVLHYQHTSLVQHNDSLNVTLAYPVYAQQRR

[3] = biological target: T3, PI3K γ (p110γ) (Homo sapiens, UniProt P48736); experiment: PI 3-Kinase (human) HTRF assay, PI3K γ
T3 construct: purchased Upstate / Millipore Corporation
T3 sequence (P48736 whole entry): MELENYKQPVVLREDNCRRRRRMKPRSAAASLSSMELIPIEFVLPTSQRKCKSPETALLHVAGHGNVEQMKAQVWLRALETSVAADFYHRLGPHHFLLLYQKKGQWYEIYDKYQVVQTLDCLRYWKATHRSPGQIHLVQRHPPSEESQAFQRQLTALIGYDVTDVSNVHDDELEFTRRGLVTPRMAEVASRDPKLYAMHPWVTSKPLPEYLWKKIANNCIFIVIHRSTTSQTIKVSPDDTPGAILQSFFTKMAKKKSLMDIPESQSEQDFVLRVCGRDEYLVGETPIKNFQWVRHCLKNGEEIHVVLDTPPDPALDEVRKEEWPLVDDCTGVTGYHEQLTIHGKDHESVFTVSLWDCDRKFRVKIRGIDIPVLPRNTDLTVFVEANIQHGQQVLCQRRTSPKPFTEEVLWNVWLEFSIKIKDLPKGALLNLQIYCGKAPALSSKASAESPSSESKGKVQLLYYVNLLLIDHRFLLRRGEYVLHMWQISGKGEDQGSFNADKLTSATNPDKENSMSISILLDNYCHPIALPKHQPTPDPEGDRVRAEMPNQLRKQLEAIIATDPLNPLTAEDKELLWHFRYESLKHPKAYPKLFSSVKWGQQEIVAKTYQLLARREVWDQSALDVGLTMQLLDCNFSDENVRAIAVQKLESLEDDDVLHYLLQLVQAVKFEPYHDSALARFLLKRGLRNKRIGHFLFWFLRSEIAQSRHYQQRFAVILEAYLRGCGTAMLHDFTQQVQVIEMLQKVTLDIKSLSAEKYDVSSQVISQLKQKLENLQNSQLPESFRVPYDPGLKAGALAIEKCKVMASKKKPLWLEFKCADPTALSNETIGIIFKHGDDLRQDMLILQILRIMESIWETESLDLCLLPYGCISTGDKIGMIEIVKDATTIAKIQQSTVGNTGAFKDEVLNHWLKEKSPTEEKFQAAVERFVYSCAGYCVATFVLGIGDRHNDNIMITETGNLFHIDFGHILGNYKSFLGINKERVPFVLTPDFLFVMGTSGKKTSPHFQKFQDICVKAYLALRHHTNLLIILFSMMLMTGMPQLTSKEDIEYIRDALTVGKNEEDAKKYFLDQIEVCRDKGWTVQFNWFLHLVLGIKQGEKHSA

[4] = biological target: T4, PI3K β (p110β/p85α) (Homo sapiens, UniProt P42338); experiment: PI 3-Kinase (human) HTRF assay, PI3K β
T4 construct: purchased Upstate / Millipore Corporation
T4 sequence (P42338 whole entry): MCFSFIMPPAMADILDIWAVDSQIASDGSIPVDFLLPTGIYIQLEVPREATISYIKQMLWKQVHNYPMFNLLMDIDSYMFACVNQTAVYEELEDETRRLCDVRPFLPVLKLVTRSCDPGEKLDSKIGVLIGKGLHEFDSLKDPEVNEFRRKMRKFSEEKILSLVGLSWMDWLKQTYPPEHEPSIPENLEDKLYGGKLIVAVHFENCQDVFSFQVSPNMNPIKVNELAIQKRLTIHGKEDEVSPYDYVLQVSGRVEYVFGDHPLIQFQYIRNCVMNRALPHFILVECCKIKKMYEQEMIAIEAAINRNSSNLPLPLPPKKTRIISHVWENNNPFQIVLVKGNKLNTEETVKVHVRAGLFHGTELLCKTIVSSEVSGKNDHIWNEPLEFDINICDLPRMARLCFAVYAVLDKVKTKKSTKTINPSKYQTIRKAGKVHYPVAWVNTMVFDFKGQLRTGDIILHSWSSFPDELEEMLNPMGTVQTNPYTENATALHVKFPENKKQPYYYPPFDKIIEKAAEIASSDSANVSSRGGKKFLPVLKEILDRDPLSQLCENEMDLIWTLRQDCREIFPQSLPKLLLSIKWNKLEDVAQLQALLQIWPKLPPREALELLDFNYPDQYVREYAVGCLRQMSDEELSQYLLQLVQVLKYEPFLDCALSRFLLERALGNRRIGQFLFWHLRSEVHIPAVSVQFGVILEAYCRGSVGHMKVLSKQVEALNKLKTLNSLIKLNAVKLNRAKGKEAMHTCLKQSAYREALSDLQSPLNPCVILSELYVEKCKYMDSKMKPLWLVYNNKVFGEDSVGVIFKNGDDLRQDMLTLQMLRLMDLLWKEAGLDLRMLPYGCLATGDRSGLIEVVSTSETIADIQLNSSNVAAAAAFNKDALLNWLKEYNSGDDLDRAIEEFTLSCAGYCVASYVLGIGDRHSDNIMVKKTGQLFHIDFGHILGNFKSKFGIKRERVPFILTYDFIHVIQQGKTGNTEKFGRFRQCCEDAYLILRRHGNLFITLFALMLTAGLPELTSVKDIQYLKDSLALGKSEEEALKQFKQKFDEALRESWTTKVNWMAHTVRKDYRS
T4 sequence (P27986 whole entry partner): as the sequence (P27986 whole entry partner) above

T1 sequence (O00329 whole entry): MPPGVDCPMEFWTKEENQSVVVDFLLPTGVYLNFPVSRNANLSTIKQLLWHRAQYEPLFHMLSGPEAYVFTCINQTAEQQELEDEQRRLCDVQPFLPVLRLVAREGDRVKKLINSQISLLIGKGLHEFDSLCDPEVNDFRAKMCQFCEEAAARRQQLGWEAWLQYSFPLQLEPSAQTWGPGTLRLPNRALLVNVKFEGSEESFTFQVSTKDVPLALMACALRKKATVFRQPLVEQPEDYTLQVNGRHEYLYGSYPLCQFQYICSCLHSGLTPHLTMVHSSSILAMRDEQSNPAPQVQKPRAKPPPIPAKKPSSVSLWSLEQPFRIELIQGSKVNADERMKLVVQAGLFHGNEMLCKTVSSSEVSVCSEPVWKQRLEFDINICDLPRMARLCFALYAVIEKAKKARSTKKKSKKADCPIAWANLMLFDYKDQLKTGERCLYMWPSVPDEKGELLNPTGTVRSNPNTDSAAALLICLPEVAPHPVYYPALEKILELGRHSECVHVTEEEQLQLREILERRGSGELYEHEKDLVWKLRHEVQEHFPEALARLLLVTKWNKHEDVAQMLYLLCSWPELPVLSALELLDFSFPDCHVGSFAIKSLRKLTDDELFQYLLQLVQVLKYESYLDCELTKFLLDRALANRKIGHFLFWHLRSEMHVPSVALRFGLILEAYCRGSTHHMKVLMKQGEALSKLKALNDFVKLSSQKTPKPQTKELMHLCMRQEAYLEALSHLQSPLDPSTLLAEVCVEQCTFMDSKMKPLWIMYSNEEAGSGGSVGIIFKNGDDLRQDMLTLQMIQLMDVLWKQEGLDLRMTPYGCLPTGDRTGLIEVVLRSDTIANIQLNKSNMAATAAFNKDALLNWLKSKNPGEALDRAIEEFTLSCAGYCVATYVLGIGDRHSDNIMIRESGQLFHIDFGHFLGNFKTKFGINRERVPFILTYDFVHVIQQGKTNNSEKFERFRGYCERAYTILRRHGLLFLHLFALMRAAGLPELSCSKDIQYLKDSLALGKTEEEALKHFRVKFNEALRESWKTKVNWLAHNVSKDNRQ
T1 sequence (P27986 whole entry partner): as the sequence (P27986 whole entry partner) above

IC50 ([1]; read-out: PI3K δ IC50) [µM] | IC50 [2] [µM] | IC50 ([3]; read-out: PI3K γ IC50) [nM] | IC50 ([4]; read-out: PI3K β IC50) [nM] | Structure (SMILES) | IC50 ([3]; PI3K γ IC50 (nM)) [nM] | IC50 [1] [µM] | IC50 ([4]; PI3K β IC50 (nM)) [nM]
< 10 | < 10 | < 10000 | > 10000 | O=C(c1cnc2ccc(-c3cccc(NS(=O)(=O)c4ccc(F)cc4F)c3)cn12)N1CCOCC1 [Compound 454] |  |  | 
< 0.1 | < 0.1 | < 100 | < 100 | O=C(c1cnc2ccc(-c3cnc(Cl)c(NS(=O)(=O)c4ccc(F)cc4)c3)cn12)N1CCOCC1 [Compound 457] |  |  | 
< 0.1 | < 0.1 | < 100 | < 100 | O=C(c1cnc2ccc(-c3cnc(Cl)c(NS(=O)(=O)c4cccc(F)c4)c3)cn12)N1CCOCC1 [Compound 458] |  |  | 
> 10 | < 10 | > 10000 | > 10000 | CS(=O)(=O)Nc1cc(-c2ccc3ncc(C(=O)N4CCOCC4)n3c2)ccc1Cl [Compound 460] |  |  | 
> 10 | < 0.1 | < 1000 | > 10000 | Nc1nc2cc(-c3ccc4ncc(C(=O)N5CC[C@H](N6CCOCC6)C5)n4c3)ccc2o1 [Compound 465] |  |  | 
< 10 | < 1 | < 1000 | < 10000 | Nc1nc2cc(-c3ccc4ncc(C(=O)N5CC[C@@H](N6CCOCC6)C5)n4c3)ccc2o1 [Compound 466] |  |  | 
< 10 | < 0.1 | < 100 | < 10000 | COC1CN(C(=O)c2cnc3ccc(-c4ccc5oc(N)nc5c4)cn23)C1 [Compound 467] |  |  | 
> 10 | < 0.1 | < 100 | < 10000 | Nc1nc2cc(-c3ccc4ncc(C(=O)N5CC(F)C5)n4c3)ccc2o1 [Compound 468] |  |  | 
< 10 | < 0.1 | < 1000 | < 10000 | Nc1nc2cc(-c3ccc4ncc(C(=O)N5CC(N6CC[C@H](O)C6)C5)n4c3)ccc2o1 [Compound 469] |  |  | 
> 10 | < 0.1 | < 100 | > 10000 | Nc1nc2cc(-c3ccc4ncc(C(=O)N5CCC(F)(F)C5)n4c3)ccc2o1 [Compound 471] |  |  | 
> 10 | < 0.1 | < 100 | > 10000 | Nc1nc2cc(-c3ccc4ncc(C(=O)N5CC(F)(F)C5)n4c3)ccc2o1 [Compound 473] |  |  | 
> 10 | < 10 | > 10000 | > 10000 | Nc1nsc2c(-c3ccc4ncc(C(=O)N5CCOCC5)n4c3)cccc12 [Compound 474] |  |  | 
< 10 | < 0.1 | < 1000 | > 10000 | Nc1nc2cc(-c3ccc4ncc(C(=O)N5CC(n6cccn6)C5)n4c3)ccc2o1 [Compound 479] |  |  | 
> 10 | < 0.1 | < 10000 | < 10000 | C[C@H]1COCCN1C(=O)c1cnc2ccc(-c3ccc4oc(N)nc4c3)cn12 [Compound 483] |  |  | 
> 10 | < 10 | > 10000 | > 10000 | Nc1nc2cccc(-c3ccc4ncc(C(=O)N5CCOCC5)n4c3)c2s1 [Compound 485] |  |  | 
> 10 | < 10 | < 10000 | > 10000 | CNc1noc2cc(-c3ccc4ncc(C(=O)N5CCOCC5)n4c3)ccc12 [Compound 486] |  |  | 
> 10 | > 10 | > 10000 | > 10000 | Nc1noc2cc(-c3ccc4ncc(C(=O)N5CCOCC5)n4c3)ccc12 [Compound 488] |  |  | 
> 10 | < 10 | > 10000 | > 10000 | Nc1nsc2cc(-c3ccc4ncc(C(=O)N5CCOCC5)n4c3)ccc12 [Compound 489] |  |  | 
> 10 | > 10 | > 10000 | > 10000 | Nc1noc2c(-c3ccc4ncc(C(=O)N5CCOCC5)n4c3)cccc12 [Compound 491] |  |  | 
> 10 | < 0.1 | < 10000 | < 1000 | Nc1nc2cc(-c3ccc4ncc(C(=O)N5CCn6cncc6C5)n4c3)ccc2o1 [Compound 493] |  |  | 
> 10 | < 0.1 | < 1000 | < 10000 | C[C@@H]1COCCN1C(=O)c1cnc2ccc(-c3ccc4oc(N)nc4c3)cn12 [Compound 495] |  |  | 
> 10 | > 10 | > 10000 | > 10000 | CNc1nsc2cc(-c3ccc4ncc(C(=O)N5CCOCC5)n4c3)ccc12 [Compound 497] |  |  | 
> 10 | < 1 | < 10000 | > 10000 | Nc1nc2cc(-c3ccc4ncc(C(=O)N5CCC(N6CC(F)(F)C6)C5)n4c3)ccc2o1 (stereo not shown) [Compound 498] |  |  | 
> 10 | < 1 | < 10000 | > 10000 | Nc1nc2cc(-c3ccc4ncc(C(=O)N5CCC6(C5)OCCO6)n4c3)ccc2o1 [Compound 499] |  |  | 
< 10 | < 0.1 | < 1000 | > 10000 | Nc1nc2cc(-c3ccc4ncc(C(=O)N5CC(N6CCC(F)(F)C6)C5)n4c3)ccc2o1 [Compound 502] |  |  | 
> 10 | < 1 | < 100 | > 10000 | Nc1nc2cc(-c3ccc4ncc(C(=O)N5CCC(F)CC5)n4c3)ccc2o1 [Compound 503] |  |  | 
> 10 | > 10 | > 10000 | > 10000 | O=C(c1cnc2ccc(-c3ccc4c(Nc5ccccc5)nsc4c3)cn12)N1CCOCC1 [Compound 505] |  |  | 

Structure (SMILES) | IC50 ([1]; read-out: PI3K δ IC50) [µM] | IC50 [2] [µM] | IC50 ([3]; read-out: PI3K γ IC50) [nM] | IC50 ([4]; read-out: PI3K β IC50) [nM] | IC50 ([3]; PI3K γ IC50 (nM)) [nM] | IC50 [1] [µM] | IC50 ([4]; PI3K β IC50 (nM)) [nM]
COc1ccc(-c2ccc3ncc(C(=O)N4CCOCC4)n3c2)cc1NS(C)(=O)=O [Compound 456] | > 10 | > 10 | > 10000 | > 10000 |  |  | 
CO[C@H]1CCN(C(=O)c2cnc3ccc(-c4ccc5oc(N)nc5c4)cn23)C1 [Compound 463] | < 10 | < 0.1 | < 1000 | < 10000 |  |  | 
CO[C@@H]1CCN(C(=O)c2cnc3ccc(-c4ccc5oc(N)nc5c4)cn23)C1 [Compound 464] | > 10 | < 0.1 | < 1000 | > 10000 |  |  | 
Nc1nc2cc(-c3ccc4ncc(C(=O)N5CC[C@H](F)C5)n4c3)ccc2o1 [Compound 476] | > 10 | < 0.1 | < 100 | > 10000 |  |  | 
Nc1nc2cc(-c3ccc4ncc(C(=O)N5C6CCC5COC6)n4c3)ccc2o1 [Compound 480] | < 10 | < 0.1 |  | > 10000 | < 1000 |  | 
Nc1nc2cccc(-c3ccc4ncc(C(=O)N5CCOCC5)n4c3)c2o1 [Compound 484] | > 10 | < 1 | > 10000 | > 10000 |  |  | 
Nc1nc2cc(-c3ccc4ncc(C(=O)N5CC6(C5)OCCO6)n4c3)ccc2o1 [Compound 494] |  | < 0.1 | < 1000 |  |  | > 10 | < 10000
Nc1nc2cc(-c3ccc4ncc(C(=O)N5CCC(N6CCC(F)(F)C6)C5)n4c3)ccc2o1 (stereo not shown) [Compound 500] | < 10 | < 1 | < 10000 | > 10000 |  |  | 
Nc1nc2cc(-c3ccc4ncc(C(=O)N5CCC(F)(F)CC5)n4c3)ccc2o1 [Compound 501] | > 10 | < 1 | < 10000 | > 10000 |  |  | 
Nc1nc2cc(-c3ccc4ncc(C(=O)N5CC6CCC(C5)O6)n4c3)ccc2o1 [Compound 504] | > 10 | < 1 | < 100 | < 10000 |  |  | 
